Measured values taken from publication PMC7316994, “In Vitro Pharmacological Profile of a New Small Molecule Bradykinin B2 Receptor Antagonist” (Frontiers in Pharmacology, 2020).

Legend:
Adrenergic β3 = Adrenergic β3 (Homo sapiens, UniProt P13945); assay: radioligand binding (Table S2); settings: read-out: % Inhibition @ 10 µM
Prostacyclin IP (PGI2) = target: T1, Prostacyclin IP (PGI2) (Homo sapiens, UniProt P43119); assay: radioligand binding (Table S2); settings: [3H] Iloprost, Human recombinant HEK-293 cells
T1 construct: host or cells: HEK-293 cells
T1 sequence (P43119 whole entry): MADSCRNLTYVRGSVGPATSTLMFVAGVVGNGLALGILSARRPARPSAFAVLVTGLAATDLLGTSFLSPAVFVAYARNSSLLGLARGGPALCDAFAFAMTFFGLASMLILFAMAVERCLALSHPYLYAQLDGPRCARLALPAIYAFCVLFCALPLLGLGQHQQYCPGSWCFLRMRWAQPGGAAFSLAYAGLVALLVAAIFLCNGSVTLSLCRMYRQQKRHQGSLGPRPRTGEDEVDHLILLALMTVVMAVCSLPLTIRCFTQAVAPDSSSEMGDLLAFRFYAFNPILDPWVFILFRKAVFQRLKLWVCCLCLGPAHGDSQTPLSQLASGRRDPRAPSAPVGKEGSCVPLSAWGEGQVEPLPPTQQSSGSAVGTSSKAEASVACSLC

[1] = target: T2, Leukotriene B4 receptor BLT1 (Homo sapiens, UniProt Q15722); assay: radioligand binding (Table S2); settings: [3H] LTB4, Human recombinant CHO cells
T2 construct: host or cells: CHO cells

kinin B1 receptor = target: T3, kinin B1 receptor (Homo sapiens, UniProt P46663); assay: umbilical vein, Sar-[D-Phe^8]des-Arg^9-BK-induced contraction; settings: 1 μM
T3 construct: during the 3-hour incubation period to upregulate the expression of B1; from tissue; host or cells: human umbilical vein rings pre-incubated with interleukin-1β and tumor necrosis factor-α

Purinergic receptor P2Y = assay: radioligand binding (Table S2); settings: [35S] dATPαS, Rat cerebral cortex
Adenosine A2A = target: T4, Adenosine A2A (Homo sapiens, UniProt P29274); assay: radioligand binding (Table S2); settings: [3H] CGS 21680, Human recombinant HEK-293 cells
T4 construct: host or cells: HEK-293 cells
T4 sequence (P29274 whole entry): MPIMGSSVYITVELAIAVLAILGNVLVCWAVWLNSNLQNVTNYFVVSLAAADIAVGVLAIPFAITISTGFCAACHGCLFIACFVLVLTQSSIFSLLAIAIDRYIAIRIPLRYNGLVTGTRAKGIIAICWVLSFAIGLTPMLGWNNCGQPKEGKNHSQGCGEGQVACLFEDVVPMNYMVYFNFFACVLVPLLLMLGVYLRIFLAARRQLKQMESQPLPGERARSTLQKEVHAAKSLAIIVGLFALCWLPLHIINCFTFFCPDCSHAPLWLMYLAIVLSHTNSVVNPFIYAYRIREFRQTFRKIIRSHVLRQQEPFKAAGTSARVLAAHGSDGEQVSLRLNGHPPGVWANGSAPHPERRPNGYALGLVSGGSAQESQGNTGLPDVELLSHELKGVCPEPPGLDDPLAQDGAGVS

[2] = target: T5, Melanin-concentrating hormone receptor MCH1 (Homo sapiens, UniProt Q99705); assay: radioligand binding (Table S2); settings: [125I] [Phe13, Tyr19]-MCH, Human recombinant CHO cells
T5 construct: host or cells: CHO cells
T5 sequence (Q99705 whole entry): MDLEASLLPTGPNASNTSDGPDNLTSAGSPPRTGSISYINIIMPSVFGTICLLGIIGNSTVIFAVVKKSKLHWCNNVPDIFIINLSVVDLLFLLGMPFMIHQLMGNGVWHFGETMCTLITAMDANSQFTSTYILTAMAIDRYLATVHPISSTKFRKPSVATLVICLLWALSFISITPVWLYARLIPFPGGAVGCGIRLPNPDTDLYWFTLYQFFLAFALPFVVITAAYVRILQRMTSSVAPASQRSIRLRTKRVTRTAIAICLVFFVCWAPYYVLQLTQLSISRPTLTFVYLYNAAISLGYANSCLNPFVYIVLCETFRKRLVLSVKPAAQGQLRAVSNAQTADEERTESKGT

Adrenergic α1A = Adrenergic α1A (Homo sapiens, UniProt P35348); assay: radioligand binding (Table S2); settings: read-out: % Inhibition @ 10 µM
Sequence of Adrenergic α1A (P35348 whole entry): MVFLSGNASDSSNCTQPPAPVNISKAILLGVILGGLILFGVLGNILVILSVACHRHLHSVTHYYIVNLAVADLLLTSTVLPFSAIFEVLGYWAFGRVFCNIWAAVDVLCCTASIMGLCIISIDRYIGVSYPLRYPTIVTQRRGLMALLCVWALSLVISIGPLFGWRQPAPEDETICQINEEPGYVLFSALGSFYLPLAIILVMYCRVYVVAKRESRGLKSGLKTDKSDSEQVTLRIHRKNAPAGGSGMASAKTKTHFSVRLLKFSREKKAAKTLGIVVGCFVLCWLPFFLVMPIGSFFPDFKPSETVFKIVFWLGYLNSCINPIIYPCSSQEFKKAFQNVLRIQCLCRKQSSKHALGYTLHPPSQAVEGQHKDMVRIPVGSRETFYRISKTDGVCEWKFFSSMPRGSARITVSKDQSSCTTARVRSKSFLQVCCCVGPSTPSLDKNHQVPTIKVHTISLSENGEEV

Dopamine transporter = target: T6, Dopamine transporter (Homo sapiens, UniProt Q01959); assay: radioligand binding (Table S2); settings: [3H] BTCP, Human recombinant CHO cells
T6 construct: host or cells: CHO cells

[3] = target: T7, endogenous human B2 receptor (Homo sapiens, UniProt P30411); assay: human isolated umbilical vein contractility assay, BK-induced contraction
T7 construct: BK-induced contraction at endogenous human B2 receptor in the umbilical vein model; from tissue; host or cells: human umbilical vein rings (donor cords after elective caesarean section)
T7 sequence (P30411 1-391): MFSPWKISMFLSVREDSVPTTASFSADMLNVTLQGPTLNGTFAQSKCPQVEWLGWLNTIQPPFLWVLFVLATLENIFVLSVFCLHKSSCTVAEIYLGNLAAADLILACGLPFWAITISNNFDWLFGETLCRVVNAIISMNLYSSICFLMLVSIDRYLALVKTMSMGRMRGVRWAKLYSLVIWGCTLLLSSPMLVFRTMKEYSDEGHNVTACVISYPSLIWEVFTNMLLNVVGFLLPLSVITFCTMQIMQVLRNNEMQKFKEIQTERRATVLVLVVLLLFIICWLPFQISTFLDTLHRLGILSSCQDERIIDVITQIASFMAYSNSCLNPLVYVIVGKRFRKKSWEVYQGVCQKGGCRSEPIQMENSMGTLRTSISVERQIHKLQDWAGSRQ

Dopamine D4.2 = target: T8, Dopamine D4.2 (Homo sapiens, UniProt P21917, DEL265-296); assay: radioligand binding (Table S2); settings: [3H] Spiperone, Human recombinant CHO-K1 cells
T8 construct: host or cells: CHO-K1 cells
T8 sequence (P21917 with tags, fused parts or gaps DEL265-296): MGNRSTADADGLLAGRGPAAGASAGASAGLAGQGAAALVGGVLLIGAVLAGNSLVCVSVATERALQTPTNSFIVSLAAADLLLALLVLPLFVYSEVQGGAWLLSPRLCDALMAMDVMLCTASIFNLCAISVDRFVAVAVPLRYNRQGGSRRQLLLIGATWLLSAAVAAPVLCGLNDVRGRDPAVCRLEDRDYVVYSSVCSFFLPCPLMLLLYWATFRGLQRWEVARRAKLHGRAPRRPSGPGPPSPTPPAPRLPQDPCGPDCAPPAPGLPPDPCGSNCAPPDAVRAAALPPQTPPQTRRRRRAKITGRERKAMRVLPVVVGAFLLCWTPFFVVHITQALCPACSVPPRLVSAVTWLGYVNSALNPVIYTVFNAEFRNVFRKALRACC

[4] = target: T9, Serotonin 5-HT transporter (Homo sapiens, UniProt P31645); assay: radioligand binding (Table S2); settings: [3H] Imipramine, Human recombinant CHO cells
T9 construct: host or cells: CHO cells

in vitro = settings: human, Caco-2
Motilin = Motilin (Homo sapiens, UniProt O43193); assay: radioligand binding (Table S2); settings: [125I] Motilin, Human recombinant CHO cells
Sequence of Motilin (O43193 whole entry): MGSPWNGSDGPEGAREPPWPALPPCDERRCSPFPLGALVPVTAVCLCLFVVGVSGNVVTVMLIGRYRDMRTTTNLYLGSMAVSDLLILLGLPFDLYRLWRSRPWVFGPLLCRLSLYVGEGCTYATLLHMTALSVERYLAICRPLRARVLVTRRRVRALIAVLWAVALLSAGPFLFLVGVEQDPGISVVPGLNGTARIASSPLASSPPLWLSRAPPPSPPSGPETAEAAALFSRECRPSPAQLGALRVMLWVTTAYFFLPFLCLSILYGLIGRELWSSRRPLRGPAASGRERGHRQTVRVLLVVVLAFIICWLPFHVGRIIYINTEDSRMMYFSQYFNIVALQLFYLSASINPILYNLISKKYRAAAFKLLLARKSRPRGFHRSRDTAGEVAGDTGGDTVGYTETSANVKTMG

[5] = target: T10, cynomolgus monkey B2 receptor (Macaca fascicularis, UniProt A0A7N9CWN6); assay: cell-based
T10 sequence (A0A7N9CWN6 1-391): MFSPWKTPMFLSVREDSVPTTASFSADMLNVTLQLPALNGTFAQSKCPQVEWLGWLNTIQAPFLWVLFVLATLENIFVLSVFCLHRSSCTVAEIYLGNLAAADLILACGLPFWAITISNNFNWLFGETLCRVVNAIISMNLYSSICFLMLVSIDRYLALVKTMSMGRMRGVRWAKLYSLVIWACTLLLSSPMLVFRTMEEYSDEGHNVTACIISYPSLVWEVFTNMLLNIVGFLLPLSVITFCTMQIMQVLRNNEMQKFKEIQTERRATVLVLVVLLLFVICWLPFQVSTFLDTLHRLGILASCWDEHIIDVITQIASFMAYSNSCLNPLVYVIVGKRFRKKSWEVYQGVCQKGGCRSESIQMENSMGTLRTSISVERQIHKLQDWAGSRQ

[6] = target: T11, Gonadotropin-releasing hormone (Homo sapiens, UniProt P30968); assay: radioligand binding (Table S2); settings: [125I] [D-Trp6]-LH-RH, Human recombinant Chem-1 cells
T11 construct: host or cells: Chem-1 cells

Potassium channel hERG = Potassium channel hERG (Homo sapiens, UniProt Q12809); assay: in vitro
Sequence of Potassium channel hERG (Q12809 whole entry): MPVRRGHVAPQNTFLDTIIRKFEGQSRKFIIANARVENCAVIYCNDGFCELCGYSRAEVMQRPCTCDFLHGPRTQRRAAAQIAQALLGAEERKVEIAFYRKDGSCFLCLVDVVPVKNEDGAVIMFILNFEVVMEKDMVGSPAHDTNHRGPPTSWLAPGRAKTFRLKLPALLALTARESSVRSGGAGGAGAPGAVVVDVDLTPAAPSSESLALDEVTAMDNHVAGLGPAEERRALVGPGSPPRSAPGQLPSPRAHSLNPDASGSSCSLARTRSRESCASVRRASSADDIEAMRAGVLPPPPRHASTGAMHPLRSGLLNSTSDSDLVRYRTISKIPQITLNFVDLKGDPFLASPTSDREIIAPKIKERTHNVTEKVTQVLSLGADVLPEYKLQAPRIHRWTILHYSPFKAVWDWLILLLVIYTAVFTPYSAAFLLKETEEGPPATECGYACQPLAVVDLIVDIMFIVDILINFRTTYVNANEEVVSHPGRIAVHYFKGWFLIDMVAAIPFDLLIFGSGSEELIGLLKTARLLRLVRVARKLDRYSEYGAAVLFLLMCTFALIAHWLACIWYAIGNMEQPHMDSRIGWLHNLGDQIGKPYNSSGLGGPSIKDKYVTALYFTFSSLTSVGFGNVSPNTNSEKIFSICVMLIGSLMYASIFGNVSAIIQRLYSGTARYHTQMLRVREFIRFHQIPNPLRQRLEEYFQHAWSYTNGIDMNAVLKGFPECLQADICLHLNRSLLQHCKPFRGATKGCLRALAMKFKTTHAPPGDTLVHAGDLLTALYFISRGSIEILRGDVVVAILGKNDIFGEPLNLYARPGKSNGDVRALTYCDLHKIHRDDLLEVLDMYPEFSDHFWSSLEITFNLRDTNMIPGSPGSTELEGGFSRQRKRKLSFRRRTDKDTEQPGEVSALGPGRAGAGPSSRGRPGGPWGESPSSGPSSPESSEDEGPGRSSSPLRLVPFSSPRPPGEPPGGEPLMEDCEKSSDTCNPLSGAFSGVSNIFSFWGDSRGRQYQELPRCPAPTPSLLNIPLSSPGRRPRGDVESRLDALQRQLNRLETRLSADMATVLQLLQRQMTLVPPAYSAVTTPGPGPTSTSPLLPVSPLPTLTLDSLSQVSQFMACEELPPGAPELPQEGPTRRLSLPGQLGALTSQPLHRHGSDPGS

Dopamine D1 = target: T12, Dopamine D1 (Homo sapiens, UniProt P21728); assay: radioligand binding (Table S2); settings: [3H] SCH 23390, Human recombinant CHO cells
T12 construct: host or cells: CHO cells
T12 sequence (P21728 whole entry): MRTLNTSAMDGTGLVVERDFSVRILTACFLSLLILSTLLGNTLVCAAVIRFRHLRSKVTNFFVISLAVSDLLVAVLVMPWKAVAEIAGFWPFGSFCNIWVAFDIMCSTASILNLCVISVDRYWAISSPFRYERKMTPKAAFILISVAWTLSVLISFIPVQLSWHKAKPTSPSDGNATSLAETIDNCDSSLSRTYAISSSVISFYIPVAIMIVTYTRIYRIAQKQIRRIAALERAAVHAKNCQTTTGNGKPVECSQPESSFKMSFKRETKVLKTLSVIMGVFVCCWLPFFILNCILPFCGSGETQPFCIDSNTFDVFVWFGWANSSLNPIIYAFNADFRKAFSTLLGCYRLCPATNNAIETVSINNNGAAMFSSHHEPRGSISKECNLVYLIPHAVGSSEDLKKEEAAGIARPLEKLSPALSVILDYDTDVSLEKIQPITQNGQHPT

[7] = system: Glutamate ionotropic, NMDA; assay: radioligand binding (Table S2); settings: [3H] CGP 39653, Rat cerebral cortex
Vasopressin V1a = target: T13, Vasopressin V1a (Homo sapiens, UniProt P37288); assay: radioligand binding (Table S2); settings: [3H] AVP, Human recombinant CHO cells
T13 construct: host or cells: CHO cells
T13 sequence (P37288 whole entry): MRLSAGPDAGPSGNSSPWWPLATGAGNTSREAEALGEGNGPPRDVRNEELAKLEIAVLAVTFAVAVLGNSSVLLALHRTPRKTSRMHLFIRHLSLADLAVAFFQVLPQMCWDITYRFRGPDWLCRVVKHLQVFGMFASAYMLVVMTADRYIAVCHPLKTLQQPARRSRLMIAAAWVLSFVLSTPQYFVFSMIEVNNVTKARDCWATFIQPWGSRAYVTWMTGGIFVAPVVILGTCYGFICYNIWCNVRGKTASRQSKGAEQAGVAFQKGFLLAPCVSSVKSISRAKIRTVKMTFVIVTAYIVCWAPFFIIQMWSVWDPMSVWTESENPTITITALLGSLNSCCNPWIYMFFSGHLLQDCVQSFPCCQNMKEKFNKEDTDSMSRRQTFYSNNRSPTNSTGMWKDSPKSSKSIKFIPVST

[8] = target: T14, Platelet-activating factor PAF (Homo sapiens, UniProt P25105); assay: radioligand binding (Table S2); settings: [3H] C16-PAF, Human recombinant CHO cells
T14 construct: host or cells: CHO cells

Melanocortin MC3 = target: T15, Melanocortin MC3 (Homo sapiens, UniProt P41968); assay: radioligand binding (Table S2); settings: [125I] NDP-α-MSH, Human recombinant CHO cells
T15 construct: host or cells: CHO cells
T15 sequence (P41968 whole entry): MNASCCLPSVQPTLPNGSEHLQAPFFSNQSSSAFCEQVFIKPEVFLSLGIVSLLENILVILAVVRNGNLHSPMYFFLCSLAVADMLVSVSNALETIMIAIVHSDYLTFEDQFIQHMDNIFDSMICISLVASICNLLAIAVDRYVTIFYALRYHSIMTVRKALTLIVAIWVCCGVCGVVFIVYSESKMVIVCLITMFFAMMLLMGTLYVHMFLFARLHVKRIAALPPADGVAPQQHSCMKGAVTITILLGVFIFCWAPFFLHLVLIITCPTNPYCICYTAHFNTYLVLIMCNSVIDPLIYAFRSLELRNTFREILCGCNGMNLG

Chemokine CCR2B = target: T16, Chemokine CCR2B (Homo sapiens, UniProt P41597); assay: radioligand binding (Table S2); settings: [125I] MCP-1, Human recombinant CHO-K1 cells
T16 construct: host or cells: CHO-K1 cells

Cc1cc(-c2ncnn2C)c2cccc(OCc3c(Cl)cc(F)cc3[C@H](C)NC(=O)COC(F)F)c2n1 [Compound 3, (S)-N-(1-(3-chloro-5-fluoro-2-((2-methyl-4-(1-methyl-1H-1,2,4-triazol-5-yl)quinolin-8-yloxy)methyl)phenyl)ethyl)-2-(difluoromethoxy)acetamide]
inhibition at 10 µM (Adrenergic β3): 8.1%
inhibition at 10 µM (Prostacyclin IP (PGI2)): -5%
inhibition at 10 µM [1]: 16.7%
effect on contraction by B1 receptor agonist Sar-[D-Phe^8]des-Arg^9-BK (kinin B1 receptor): failed to antagonize
% Inhibition @ 10 µM (Purinergic receptor P2Y): -4.3%
inhibition at 10 µM (Adenosine A2A): 9.8%
inhibition at 10 µM [2]: 13.4%
inhibition at 10 µM (Adrenergic α1A): 13.3%
inhibition at 10 µM (Dopamine transporter): 2.2%
Kb [3]: 0.214 nM
type of antagonism of BK ([3]; BK concentration-effect curves, Emax): competitive
pA2 ([3]; Schild plot, Pharm/PCS, ± S.E.M. where given): 9.67 ± 0.42
Schild plot slope ([3]; Schild regression, Pharm/PCS, ± S.E.M. where given): −0.76
Maximal BK-induced response in absolute force units ± S.E.M. ([3]; antagonist 1 nM, vehicle for Compound 3 1.52 ± 0.20): 1.75 ± 0.32 grams-weight
Maximal BK-induced response in absolute force units ± S.E.M. ([3]; antagonist 10 nM, vehicle: Icatibant 1.90, Compound 1 […], Compound 2 2.25, Compound 3 1.52): 2.29 ± 0.24 grams-weight
Maximal BK-induced response in absolute force units ± S.E.M. ([3]; antagonist 100 nM, vehicle: Icatibant 1.90, Compound 1 […], Compound 2 2.25, Compound 3 1.52): 2.42 ± 0.36 grams-weight
Maximal BK-induced response in absolute force units ± S.E.M. ([3]; antagonist 1 μM, vehicle: Icatibant 1.90, Compound 1 […], Compound 2 2.25, Compound 3 1.52): 1.25 ± 0.14 grams-weight
pA2 value converted into nM ([3]; potency from pA2): 0.21 nM
inhibition at 10 µM (Dopamine D4.2): 2%
inhibition at 10 µM [4]: -23.4%
Papp A→B at 60 min, 10 µM (in vitro): 17.3 ×10⁻⁶ cm/s
Papp B→A at 60 min, 10 µM (in vitro): 17.6 ×10⁻⁶ cm/s
inhibition at 10 µM (Motilin): 5%
IC50 [5]: 6.25 nM
Kb [5]: 1.36 nM
inhibition at 10 µM [6]: 5%
inhibition at 60 min, 10 µM (Potassium channel hERG): 17.8%
inhibition at 10 µM (Dopamine D1): 6.9%
% Inhibition @ 10 µM [7]: 5.1%
% Inhibition @ 10 µM (Vasopressin V1a): 84%
inhibition at 10 µM (Vasopressin V1a): 84.1%
inhibition at 10 µM [8]: 25%
inhibition at 10 µM (Melanocortin MC3): -8.2%
inhibition at 10 µM (Chemokine CCR2B): 1%
